Measured values reported in patent US12187723B2 (BRISTOL-MYERS SQUIBB COMPANY, priority 2019, dated 2025).

Molecular target: T1, human TLR7 (Homo sapiens, UniProt Q9NYK1)
T1 construct: host or cells: HEK-Blue cells
T1 sequence (Q9NYK1 27-1049): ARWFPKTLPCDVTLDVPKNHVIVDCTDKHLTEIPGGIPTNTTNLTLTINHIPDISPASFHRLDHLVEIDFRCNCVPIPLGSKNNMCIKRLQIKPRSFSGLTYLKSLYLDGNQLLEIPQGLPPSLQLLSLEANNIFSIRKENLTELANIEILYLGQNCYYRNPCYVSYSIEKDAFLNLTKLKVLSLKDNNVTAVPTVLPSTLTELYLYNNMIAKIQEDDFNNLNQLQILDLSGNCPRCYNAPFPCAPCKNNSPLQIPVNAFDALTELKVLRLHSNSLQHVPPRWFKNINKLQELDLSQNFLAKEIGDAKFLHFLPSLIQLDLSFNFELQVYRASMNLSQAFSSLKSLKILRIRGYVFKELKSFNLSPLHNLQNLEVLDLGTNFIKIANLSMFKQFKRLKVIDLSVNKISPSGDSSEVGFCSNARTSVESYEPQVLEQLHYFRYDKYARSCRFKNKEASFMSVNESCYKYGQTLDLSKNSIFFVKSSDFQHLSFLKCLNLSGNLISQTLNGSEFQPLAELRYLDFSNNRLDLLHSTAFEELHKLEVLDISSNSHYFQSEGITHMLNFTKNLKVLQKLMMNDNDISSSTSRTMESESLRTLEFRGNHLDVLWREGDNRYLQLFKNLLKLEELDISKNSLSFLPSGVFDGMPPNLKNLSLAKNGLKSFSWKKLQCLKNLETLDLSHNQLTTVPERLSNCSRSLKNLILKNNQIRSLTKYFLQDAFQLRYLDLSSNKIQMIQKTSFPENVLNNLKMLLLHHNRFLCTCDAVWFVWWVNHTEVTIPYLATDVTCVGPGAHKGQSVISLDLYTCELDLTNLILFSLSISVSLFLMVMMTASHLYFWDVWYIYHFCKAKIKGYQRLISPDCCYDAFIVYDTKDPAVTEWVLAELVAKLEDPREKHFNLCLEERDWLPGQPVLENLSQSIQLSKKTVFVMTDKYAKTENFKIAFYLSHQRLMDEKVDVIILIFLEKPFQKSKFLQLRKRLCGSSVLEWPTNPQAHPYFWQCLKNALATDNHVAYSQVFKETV
Assay: TLR7 inhibition reporter assay (HEK-Blue SEAP)
Type: cell-based
Details: HEK-Blue cells overexpressing human TLR7, gardiquimod 7.5 μM, 22 hour incubation
Summary of the method: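 Cells (15000/well for TLR7, 20,000 for TLR8) were treated with compounds over 0.05 nM-50 μM final. After 22 h at 37° C, 5% CO2, SEAP was measured with HEK-Blue Detection reagent; percent inhibition was taken as reduction of agonist-plus-DMSO signal relative to a known inhibitor.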

IC50	Compound
3.01 nM	COc1cc(-c2cc3[nH]c(=O)n(C4CCC(N5CC(O)(C(F)(F)F)C5)CC4)c3cc2C(C)C)cn2ncnc12 (single isomer, unassigned) [Example 241, 1-(4-(3-hydroxy-3-(trifluoromethyl)azetidin-1-yl)cyclohexyl)-6-isopropyl-5-(8-methoxy-[1,2,4]triazolo[1,5-a]pyridin-6-yl)-1,3-dihydro-2H-benzo[d]imidazol-2-one]
138 nM	COc1cc(-c2cc3[nH]c(=O)n([C@H]4CCCN(CCS(C)(=O)=O)C4)c3cc2C(C)C)cn2ncnc12 [Example 222, (S)-6-isopropyl-5-(8-methoxy-[1,2,4]triazolo[1,5-a]pyridin-6-yl)-1-(1-(2-(methylsulfonyl)ethyl)piperidin-3-yl)-1,3-dihydro-2H-benzo[d]imidazol-2-one]
4.72 nM	COc1cc(-c2cc3[nH]c(=O)n([C@H]4CC[C@H](NC(C)C)CC4)c3cc2C(C)C)cn2ncnc12 [Example 203, 6-isopropyl-1-((1r,4s)-4-(isopropylamino)cyclohexyl)-5-(8-methoxy-[1,2,4]triazolo[1,5-a]pyridin-6-yl)-1,3-dihydro-2H-benzo[d]imidazol-2-one]
2.28 nM	CCC(CC)CN[C@H]1CC[C@@H](n2c(=O)[nH]c3cc(-c4cc(OC)c5ncnn5c4)c(C(C)C)cc32)CC1 [Example 194]
1.93 nM	CCc1cc2c(cc1-c1cc(OC)c3ncnn3c1)[nH]c(=O)n2[C@@H]1CCCN(CC2CC2)C1 [Example 182, (R)-1-(1-(cyclopropylmethyl)piperidin-3-yl)-6-ethyl-5-(8-methoxy-[1,2,4]triazolo[1,5-a]pyridin-6-yl)-1,3-dihydro-2H-benzo[d]imidazol-2-one]
1.45 nM	CCc1cc2c(cc1-c1cc(OC)c3ncnn3c1)[nH]c(=O)n2[C@@H]1CCCN(C(C)C)C1 [Example 172, (R)-6-ethyl-1-(1-isopropylpiperidin-3-yl)-5-(8-methoxy-[1,2,4]triazolo[1,5-a]pyridin-6-yl)-1,3-dihydro-2H-benzo[d]imidazol-2-one]
5.72 nM	Cc1c(-c2cc3[nH]c(=O)n([C@H]4CC[C@@H](NCC(C)(C)C)CC4)c3cc2C(C)C)cn2ncnc2c1C [Example 190, 5-(7,8-dimethyl-[1,2,4]triazolo[1,5-a]pyridin-6-yl)-6-isopropyl-1-((1s,4s)-4-(neopentylamino)cyclohexyl)-1,3-dihydro-2H-benzo[d]imidazol-2-one]
0.05 nM	COc1cc(-c2cc3[nH]c(=O)n([C@@H]4CCCN(C5CCCOC5)C4)c3cc2C(C)C)cn2ncnc12 (single isomer, unassigned) [Example 219]
1.13 nM	COCCN1CCC[C@@H](n2c(=O)[nH]c3cc(-c4cc(OC)c5ncnn5c4)c(C(C)C)cc32)C1 [Example 226, (R)-6-isopropyl-5-(8-methoxy-[1,2,4]triazolo[1,5-a]pyridin-6-yl)-1-(1-(2-methoxyethyl)piperidin-3-yl)-1,3-dihydro-2H-benzo[d]imidazol-2-one]
12.2 nM	CCc1cc2c(cc1-c1cc(OC)c3ncnn3c1)[nH]c(=O)n2[C@@H]1CCCN(CCC(F)(F)F)C1 [Example 183, (R)-6-ethyl-5-(8-methoxy-[1,2,4]triazolo[1,5-a]pyridin-6-yl)-1-(1-(3,3,3-trifluoropropyl)piperidin-3-yl)-1,3-dihydro-2H-benzo[d]imidazol-2-one]
1.4 nM	COc1cc(-c2cc3[nH]c(=O)n(C4CCC(N5CCCC5)CC4)c3cc2C(C)C)cn2ncnc12 (stereo not shown) [Example 232, 6-isopropyl-5-(8-methoxy-[1,2,4]triazolo[1,5-a]pyridin-6-yl)-1-(4-(pyrrolidin-1-yl)cyclohexyl)-1,3-dihydro-2H-benzo[d]imidazol-2-one]
3.52 nM	COc1cc(-c2cc3[nH]c(=O)n(C4CCC(N5CCC6(CC5)COC6)CC4)c3cc2C(C)C)cn2ncnc12 (stereo not shown) [Example 240, 1-(4-(2-oxa-7-azaspiro[3.5]nonan-7-yl)cyclohexyl)-6-isopropyl-5-(8-methoxy-[1,2,4]triazolo[1,5-a]pyridin-6-yl)-1,3-dihydro-2H-benzo[d]imidazol-2-one]
24.6 nM	Cc1cc2c(cc1-c1cc(C)c3ncnn3c1)[nH]c(=O)n2[C@@H]1CCCN(C)C1 [Example 15, (R)-6-methyl-5-(8-methyl-[1,2,4]triazolo[1,5-a]pyridin-6-yl)-1-(1-methylpiperidin-3-yl)-1,3-dihydro-2H-benzo[d]imidazol-2-one]
4.09 nM	Cc1c(-c2cc3[nH]c(=O)n([C@H]4CC[C@@H](NC5CCOCC5)CC4)c3cc2C(C)C)cn2ncnc2c1C [Example 187, 5-(7,8-dimethyl-[1,2,4]triazolo[1,5-a]pyridin-6-yl)-6-isopropyl-1-((1s,4s)-4-((tetrahydro-2H-pyran-4-yl)amino)cyclohexyl)-1,3-dihydro-2H-benzo[d]imidazol-2-one]
1.06 nM	CCCN1CCC[C@@H](n2c(=O)[nH]c3cc(-c4cc(OC)c5ncnn5c4)c(CC)cc32)C1 [Example 179, (R)-6-ethyl-5-(8-methoxy-[1,2,4]triazolo[1,5-a]pyridin-6-yl)-1-(1-propylpiperidin-3-yl)-1,3-dihydro-2H-benzo[d]imidazol-2-one]
1.31 nM	COc1cc(-c2cc3[nH]c(=O)n(C4CCC(N5CC(OC)C5)CC4)c3cc2C(C)C)cn2ncnc12 (stereo not shown) [Example 237, 6-isopropyl-5-(8-methoxy-[1,2,4]triazolo[1,5-a]pyridin-6-yl)-1-(4-(3-methoxyazetidin-1-yl)cyclohexyl)-1,3-dihydro-2H-benzo[d]imidazol-2-one]
119 nM	COc1cc(-c2cc3[nH]c(=O)n(C4CCC(N5CCNC(=O)C5)CC4)c3cc2C(C)C)cn2ncnc12 (stereo not shown) [Example 243, 6-isopropyl-5-(8-methoxy-[1,2,4]triazolo[1,5-a]pyridin-6-yl)-1-(4-(3-oxopiperazin-1-yl)cyclohexyl)-1,3-dihydro-2H-benzo[d]imidazol-2-one]
4.1 nM	COc1cc(-c2cc3[nH]c(=O)n([C@H]4CC[C@@H](NCC5CCOCC5)CC4)c3cc2C(C)C)cn2ncnc12 [Example 196, 6-isopropyl-5-(8-methoxy-[1,2,4]triazolo[1,5-a]pyridin-6-yl)-1-((1s,4s)-4-(((tetrahydro-2H-pyran-4-yl)methyl)amino)cyclohexyl)-1,3-dihydro-2H-benzo[d]imidazol-2-one]
7.14 nM	Cc1c(-c2cc3[nH]c(=O)n([C@H]4CC[C@@H](NC5COC5)CC4)c3cc2C(C)C)cn2ncnc2c1C [Example 188, 5-(7,8-dimethyl-[1,2,4]triazolo[1,5-a]pyridin-6-yl)-6-isopropyl-1-((1s,4s)-4-(oxetan-3-ylamino)cyclohexyl)-1,3-dihydro-2H-benzo[d]imidazol-2-one]
0.83 nM	CCc1cc2c(cc1-c1cc(OC)c3ncnn3c1)[nH]c(=O)n2[C@@H]1CCCN(CC2CCOCC2)C1 [Example 175, (R)-6-ethyl-5-(8-methoxy-[1,2,4]triazolo[1,5-a]pyridin-6-yl)-1-(1-((tetrahydro-2H-pyran-4-yl)methyl)piperidin-3-yl)-1,3-dihydro-2H-benzo[d]imidazol-2-one]
12.1 nM	CCc1cc2c(cc1-c1cc(OC)c3ncnn3c1)[nH]c(=O)n2[C@@H]1CCCN(C2CCOCC2)C1 [Example 184, (R)-6-ethyl-5-(8-methoxy-[1,2,4]triazolo[1,5-a]pyridin-6-yl)-1-(1-(tetrahydro-2H-pyran-4-yl)piperidin-3-yl)-1,3-dihydro-2H-benzo[d]imidazol-2-one]
1.97 nM	COc1cc(-c2cc3[nH]c(=O)n([C@H]4CC[C@@H](NC(C)C)CC4)c3cc2C(C)C)cn2ncnc12 [Example 192, 6-isopropyl-1-((1s,4s)-4-(isopropylamino)cyclohexyl)-5-(8-methoxy-[1,2,4]triazolo[1,5-a]pyridin-6-yl)-1,3-dihydro-2H-benzo[d]imidazol-2-one]
